This note sets out measurements from patent publication US20230010375A1, “ANTI-VIRAL COMPOSITION” (priority 2020, published 2023).

Each structure is given as a SMILES string.

In this test the test system is COVID-19. The conditions noted are these: human, in vivo.

As for `O=C([O-])O.[Na+]` [bicarbonate of soda, sodium bicarbonate], the “second swab test (Covid-19)” value is “non-conclusive” and the “third swab test (Covid-19)” value was “negative”. The “symptoms after the first 2/3rds of a dose” value (po) is “no symptoms”.
